Measurements: patent US4550021A (The Kitasato Institute, priority 1983, dated 1985)

Assays:
Type in all cases: physicochemical
Solubility = conditions: for Solubility in organic solvents: dichloromethane, chloroform, acetone
Nature (acid/base) = assay: Nature (acid/base)
Stability under heating = assay: Stability under heating

CCC(=C/[C@H](C)C/C=C/C(C)=C/[C@@H](CO)C(=O)[C@@H](C)[C@H](O)[C@@H](C)C/C(C)=C/C(=O)O)/C=C/[C@@H]1OC(=O)C=C[C@@H]1C [antibiotic 81-484]
Solubility in organic solvents (Solubility; diethyl ether, methanol, ethyl acetate, butyl acetate, benzene): soluble | Solubility in hexane (Solubility; hexane): insoluble | Solubility in organic solvents (Solubility; many types: methanol, ethanol, methyl isobutyl ketone): soluble | Solubility in water (Solubility; water): insoluble | Nature (Nature (acid/base)): acidic substance | stability under heating (Stability under heating): stable under heating
